Columns and labels:
[1] = The ability to inhibit [3H]- uracil incorporation by Toxoplasma gondii in cultures of HEL cells was tested; format: functional, cell-based, Homo sapiens
Dihydrofolate reductase [2] = biological target: T1, Dihydrofolate reductase (Pneumocystis carinii, UniProt P16184)
T1 sequence (P16184 whole entry): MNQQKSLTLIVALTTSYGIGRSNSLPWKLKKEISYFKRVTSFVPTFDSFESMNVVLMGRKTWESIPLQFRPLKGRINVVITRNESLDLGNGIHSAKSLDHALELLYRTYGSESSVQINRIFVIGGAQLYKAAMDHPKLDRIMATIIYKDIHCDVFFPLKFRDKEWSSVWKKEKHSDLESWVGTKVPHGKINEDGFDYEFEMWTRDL
Description: The ability to inhibit Pneumocystis carinii Dihydrofolate reductase was tested

[3] = biological target: T2, Bifunctional dihydrofolate reductase-thymidylate synthase (Toxoplasma gondii, UniProt Q07422)
T2 sequence (Q07422 whole entry): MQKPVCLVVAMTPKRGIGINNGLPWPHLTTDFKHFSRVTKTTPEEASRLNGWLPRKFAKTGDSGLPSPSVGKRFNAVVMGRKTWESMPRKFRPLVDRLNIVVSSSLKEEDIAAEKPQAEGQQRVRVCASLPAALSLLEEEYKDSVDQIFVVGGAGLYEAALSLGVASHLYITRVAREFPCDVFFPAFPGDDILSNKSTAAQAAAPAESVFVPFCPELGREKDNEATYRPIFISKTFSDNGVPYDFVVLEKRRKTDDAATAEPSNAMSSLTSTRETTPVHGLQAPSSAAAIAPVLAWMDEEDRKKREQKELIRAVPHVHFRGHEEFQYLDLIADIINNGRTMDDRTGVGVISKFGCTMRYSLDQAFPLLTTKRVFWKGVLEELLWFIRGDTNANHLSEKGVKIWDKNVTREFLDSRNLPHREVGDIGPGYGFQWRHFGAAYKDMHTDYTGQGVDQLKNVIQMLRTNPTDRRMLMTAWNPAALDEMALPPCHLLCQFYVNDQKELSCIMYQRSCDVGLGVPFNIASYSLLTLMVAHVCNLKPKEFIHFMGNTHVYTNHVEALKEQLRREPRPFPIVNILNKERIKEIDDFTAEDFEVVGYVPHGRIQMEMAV
Description: The ability to inhibit Toxoplasma gondii Dihydrofolate reductase was tested

Dihydrofolate reductase [4] = biological target: T3, Dihydrofolate reductase (Rattus norvegicus, UniProt Q920D2)
T3 sequence (Q920D2 whole entry): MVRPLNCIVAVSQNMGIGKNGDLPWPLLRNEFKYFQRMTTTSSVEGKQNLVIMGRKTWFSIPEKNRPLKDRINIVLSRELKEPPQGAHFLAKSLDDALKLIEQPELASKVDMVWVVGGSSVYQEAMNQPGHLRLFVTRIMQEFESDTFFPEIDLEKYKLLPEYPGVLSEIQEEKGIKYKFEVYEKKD
Description: The ability to inhibit rat liver Dihydrofolate reductase was tested

786-0 = assay: Compound was tested for the growth inhibition of 786-0 renal tumor cell line; format: functional, cell-based; details: Homo sapiens
A498 = assay: Compound was tested for the growth inhibition of A498 renal tumor cell line; format: functional, cell-based; details: Homo sapiens
ACHN = assay: Compound was tested for the growth inhibition of ACHN renal tumor cell line; format: functional, cell-based; details: Homo sapiens
A549 = assay: Compound was tested for the growth inhibition of A549 lung tumor cell line; format: functional, cell-based; details: Homo sapiens
BT-549 = assay: Compound was tested for the growth inhibition of BT-549 breast carcinoma cell line; format: functional, cell-based; details: Homo sapiens
COLO 205 = assay: Compound was tested for the growth inhibition of COLO 205 colon tumor cell line; format: functional, cell-based; details: Homo sapiens
EKVX = assay: Compound was tested for the growth inhibition of EKVX lung tumor cell line; format: functional, cell-based; details: Homo sapiens
HCT-116 = assay: Compound was tested for the growth inhibition of HCT116 colon tumor cell line; format: functional, cell-based; details: Homo sapiens
IGROV-1 = assay: Compound was tested for the growth inhibition of IGROV1 ovarian tumor cell line; format: functional, cell-based; details: Homo sapiens
KM12 = assay: Compound was tested for the growth inhibition of KM12 colon tumor cell line; format: functional, cell-based; details: Homo sapiens
NCI-H460 = assay: Compound was tested for the growth inhibition of NCI-H460 lung tumor cell line; format: functional, cell-based; details: Homo sapiens
NCI-H226 = assay: Compound was tested for the growth inhibition of NCI-H226 lung tumor cell line; format: functional, cell-based; details: Homo sapiens
OVCAR-8 = assay: Compound was tested for the growth inhibition of OVCAR-8 ovarian tumor cell line; format: functional, cell-based; details: Homo sapiens
PC-3 = assay: Compound was tested for the growth inhibition of PC3 prostate tumor cell line; format: functional, cell-based; details: Homo sapiens
SF-268 = assay: Compound was tested for the growth inhibition of SF-268 CNS tumor cell line; format: functional, cell-based; details: Homo sapiens
SW-620 = assay: Compound was tested for the growth inhibition of SW-620 colon tumor cell line; format: functional, cell-based; details: Homo sapiens
SF-295 = assay: Compound was tested for the growth inhibition of SF-295 CNS tumor cell line; format: functional, cell-based; details: Homo sapiens
SN12C = assay: Compound was tested for the growth inhibition of SN12C renal tumor cell line; format: functional, cell-based; details: Homo sapiens
T47D = assay: Compound was tested for the growth inhibition of T-47D breast tumor cell line; format: functional, cell-based; details: Homo sapiens
UACC-257 = assay: Compound was tested for the growth inhibition of UACC-257 melanoma tumor cell line; format: functional, cell-based; details: Homo sapiens
[5] = Ratio of the inhibitory concentrations against [3H]-uracil incorporation into nuclear DNA and Toxoplasma gondii (Tg) DHFR; IC50 ([3H]uracil incorporation)/IC50 (Tg); format: functional
MDA-N = assay: Compound was tested for the growth inhibition of MDA-N breast carcinoma cell line; format: functional, cell-based; details: Homo sapiens
LOX IMVI = assay: Compound was tested for the growth inhibition of LOX IMVI melanoma tumor cell line; format: functional, cell-based; details: Homo sapiens
OVCAR-3 = assay: Compound was tested for the growth inhibition of OVCAR-3 ovarian tumor cell line; format: functional, cell-based; details: Homo sapiens
SF-539 = assay: Compound was tested for the growth inhibition of SF-539 CNS tumor cell line; format: functional, cell-based; details: Homo sapiens
SK-MEL-5 = assay: Compound was tested for the growth inhibition of SK-MEL-5 melanoma tumor cell line; format: functional, cell-based; details: Homo sapiens

CCc1nc(N)nc(N)c1-c1ccc(Cl)cc1 [PYRIMETHAMINE]
IC50 [1]: 0.67 µM

Nc1nc(N)c2c(n1)CCC(Cc1ccsc1)C2 (stereo not given)
IC50 (Dihydrofolate reductase [2]): 1.7 µM
IC50 [3]: 0.049 µM
IC50 (Dihydrofolate reductase [4]): 0.13 µM

COc1ccc(CC2CCc3nc(N)nc(N)c3C2)cc1OC (stereo not given)
IC50 (786-0): 0.06 µM
IC50 (A498): 24 µM
IC50 (ACHN): 0.24 µM
IC50 (A549): 0.06 µM
IC50 (BT-549): 0.27 µM
IC50 (COLO 205): 3.8 µM
IC50 (EKVX): 5.7 µM
IC50 (HCT-116): 0.04 µM
IC50 [1]: 0.081 µM
IC50 (IGROV-1): 0.13 µM
IC50 (KM12): 1.3 µM
IC50 (NCI-H460): 0.04 µM
IC50 (NCI-H226): 12 µM
IC50 (OVCAR-8): 21 µM
IC50 (PC-3): 0.072 µM
IC50 (SF-268): 0.3 µM
IC50 (SW-620): 0.99 µM
IC50 (SF-295): 0.25 µM
IC50 (SN12C): 23 µM
IC50 (T47D): 19 µM
IC50 (UACC-257): 15 µM
Ratio [5]: 3.5
IC50 (MDA-N): 0.051 µM
IC50 (LOX IMVI): 0.07 µM
IC50 (Dihydrofolate reductase [2]): 0.1 µM
IC50 [3]: 0.023 µM
IC50 (Dihydrofolate reductase [4]): 0.063 µM

Nc1nc(N)c2c(n1)CCC(CC1CCCO1)C2 (stereo not given)
IC50 (Dihydrofolate reductase [2]): 0.88 µM
IC50 [3]: 0.04 µM
IC50 (Dihydrofolate reductase [4]): 0.27 µM

Cc1ccccc1CC1CCc2nc(N)nc(N)c2C1 (stereo not given)
IC50 (Dihydrofolate reductase [2]): 0.25 µM
IC50 [3]: 0.023 µM
IC50 (Dihydrofolate reductase [4]): 0.11 µM

COc1ccc(OC)c(CN2CCc3nc(N)nc(N)c3C2)c1
IC50 (Dihydrofolate reductase [2]): 3.3 µM
IC50 [3]: 0.3 µM
IC50 (Dihydrofolate reductase [4]): 1.4 µM

Nc1nc(N)c2c(n1)CCC(Cc1ccccc1)C2 (stereo not given)
IC50 [1]: 0.25 µM
Ratio [5]: 7.8
IC50 (Dihydrofolate reductase [2]): 0.29 µM
IC50 [3]: 0.032 µM
IC50 (Dihydrofolate reductase [4]): 0.18 µM

Nc1nc(N)c2c(n1)CCC(Cc1cccs1)C2 (stereo not given)
IC50 (Dihydrofolate reductase [2]): 0.21 µM
IC50 [3]: 0.062 µM
IC50 (Dihydrofolate reductase [4]): 0.08 µM

COc1ccccc1CC1CCc2nc(N)nc(N)c2C1 (stereo not given)
IC50 (Dihydrofolate reductase [2]): 0.45 µM
IC50 [3]: 0.014 µM
IC50 (Dihydrofolate reductase [4]): 0.12 µM

COc1cccc(CC2CCc3nc(N)nc(N)c3C2)c1 (stereo not given)
IC50 (Dihydrofolate reductase [2]): 0.27 µM
IC50 [3]: 0.021 µM
IC50 (Dihydrofolate reductase [4]): 0.11 µM

Nc1nc(N)c2c(n1)CCC(Cc1ccc(Cl)c(Cl)c1)C2 (stereo not given)
IC50 (Dihydrofolate reductase [2]): 15 µM
IC50 [3]: 2.6 µM
IC50 (Dihydrofolate reductase [4]): 7.3 µM

Nc1nc(N)c2c(n1)CCC(Cc1cccc(OC(F)(F)F)c1)C2 (stereo not given)
IC50 [1]: 0.13 µM
Ratio [5]: 9.3
IC50 (Dihydrofolate reductase [2]): 0.1 µM
IC50 [3]: 0.014 µM
IC50 (Dihydrofolate reductase [4]): 0.079 µM

COc1cc(CN2CCc3nc(N)nc(N)c3C2)cc(OC)c1OC
IC50 (Dihydrofolate reductase [2]): 6.9 µM
IC50 [3]: 0.2 µM
IC50 (Dihydrofolate reductase [4]): 2.2 µM

COc1cc(CC2CCc3nc(N)nc(N)c3C2)cc(OC)c1OC (stereo not given)
IC50 (786-0): 0.06 µM
IC50 (A498): 21 µM
IC50 (ACHN): 0.27 µM
IC50 (A549): 0.78 µM
IC50 (BT-549): 11 µM
IC50 (COLO 205): 1.6 µM
IC50 (EKVX): 0.71 µM
IC50 (HCT-116): 0.05 µM
IC50 [1]: 0.21 µM
IC50 (IGROV-1): 0.19 µM
IC50 (KM12): 1.3 µM
IC50 (NCI-H460): 0.06 µM
IC50 (OVCAR-3): 9.8 µM
IC50 (PC-3): 0.19 µM
IC50 (SF-268): 0.19 µM
IC50 (SF-295): 0.25 µM
IC50 (SN12C): 36 µM
IC50 (SF-539): 1 µM
IC50 (SK-MEL-5): 0.08 µM
IC50 (T47D): 22 µM
IC50 (UACC-257): 27 µM
Ratio [5]: 8.8
IC50 (LOX IMVI): 0.08 µM
IC50 (Dihydrofolate reductase [2]): 0.091 µM
IC50 [3]: 0.024 µM
IC50 (Dihydrofolate reductase [4]): 0.038 µM

CC(C)(C)C1CCc2nc(N)nc(N)c2C1 (stereo not given)
IC50 (Dihydrofolate reductase [2]): 0.18 µM
IC50 [3]: 0.018 µM
IC50 (Dihydrofolate reductase [4]): 0.065 µM

Cc1cccc(CC2CCc3nc(N)nc(N)c3C2)c1 (stereo not given)
IC50 (Dihydrofolate reductase [2]): 0.34 µM
IC50 [3]: 0.036 µM
IC50 (Dihydrofolate reductase [4]): 0.11 µM

CCC1CCc2nc(N)nc(N)c2C1 (stereo not given)
IC50 (Dihydrofolate reductase [2]): 6.9 µM
IC50 [3]: 1.1 µM
IC50 (Dihydrofolate reductase [4]): 3 µM

Nc1nc(N)c2c(n1)CCC(c1ccccc1)C2 (stereo not given)
IC50 (Dihydrofolate reductase [2]): 2.2 µM
IC50 [3]: 1.3 µM
IC50 (Dihydrofolate reductase [4]): 1.9 µM

Nc1nc(N)c2c(n1)CCC(Cc1cccc(C(F)(F)F)c1)C2 (stereo not given)
IC50 (Dihydrofolate reductase [2]): 0.4 µM
IC50 [3]: 0.14 µM
IC50 (Dihydrofolate reductase [4]): 0.19 µM

COc1ccc(OC)c(CC2CCc3nc(N)nc(N)c3C2)c1 (stereo not given)
IC50 (786-0): 0.06 µM
IC50 (A498): 10 µM
IC50 (A549): < 0.01 µM
IC50 (BT-549): 0.33 µM
IC50 (COLO 205): 10 µM
IC50 (EKVX): 16 µM
IC50 (HCT-116): < 0.01 µM
IC50 (KM12): 2.7 µM
IC50 (NCI-H460): < 0.01 µM
IC50 (NCI-H226): 31 µM
IC50 (OVCAR-3): 15 µM
IC50 (OVCAR-8): 21 µM
IC50 (PC-3): 0.035 µM
IC50 (SW-620): 0.32 µM
IC50 (SN12C): 15 µM
IC50 (SF-539): 0.43 µM
IC50 (T47D): 20 µM
IC50 (UACC-257): 8.4 µM
IC50 (MDA-N): < 0.01 µM
IC50 (LOX IMVI): 0.06 µM
IC50 (Dihydrofolate reductase [2]): 0.057 µM
IC50 [3]: 0.021 µM
IC50 (Dihydrofolate reductase [4]): 0.034 µM

COc1ccc(CC2CCc3nc(N)nc(N)c3C2)cc1 (stereo not given)
IC50 (Dihydrofolate reductase [2]): 0.44 µM
IC50 [3]: 0.05 µM
IC50 (Dihydrofolate reductase [4]): 0.077 µM

Nc1nc(N)c2c(n1)CCC(Cc1ccc(OC(F)(F)F)cc1)C2 (stereo not given)
IC50 (Dihydrofolate reductase [2]): 0.58 µM
IC50 [3]: 0.073 µM
IC50 (Dihydrofolate reductase [4]): 0.17 µM
